# pIC50: −log10 of the molar value. The source made the active and inactive calls.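 How the source made its calls: active means in confirmatory dose-response testing, peak deubiquitinase inhibition of 30% or more; inactive means the rest.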
# Target: Ubiquitin carboxyl-terminal hydrolase 28 (Homo sapiens) (UniProt Q96RU2)
# Experiment: Concentration-response biochemical assay confirming initial hits as inhibitors of ubiquitin-specific protease 28 (AID 1645866)
# Conditions: purified USP28, ubiquitin-rhodamine fluorescence, 30 min
# Sequence of Ubiquitin carboxyl-terminal hydrolase 28 (Homo sapiens) (Q96RU2 whole entry, looked up): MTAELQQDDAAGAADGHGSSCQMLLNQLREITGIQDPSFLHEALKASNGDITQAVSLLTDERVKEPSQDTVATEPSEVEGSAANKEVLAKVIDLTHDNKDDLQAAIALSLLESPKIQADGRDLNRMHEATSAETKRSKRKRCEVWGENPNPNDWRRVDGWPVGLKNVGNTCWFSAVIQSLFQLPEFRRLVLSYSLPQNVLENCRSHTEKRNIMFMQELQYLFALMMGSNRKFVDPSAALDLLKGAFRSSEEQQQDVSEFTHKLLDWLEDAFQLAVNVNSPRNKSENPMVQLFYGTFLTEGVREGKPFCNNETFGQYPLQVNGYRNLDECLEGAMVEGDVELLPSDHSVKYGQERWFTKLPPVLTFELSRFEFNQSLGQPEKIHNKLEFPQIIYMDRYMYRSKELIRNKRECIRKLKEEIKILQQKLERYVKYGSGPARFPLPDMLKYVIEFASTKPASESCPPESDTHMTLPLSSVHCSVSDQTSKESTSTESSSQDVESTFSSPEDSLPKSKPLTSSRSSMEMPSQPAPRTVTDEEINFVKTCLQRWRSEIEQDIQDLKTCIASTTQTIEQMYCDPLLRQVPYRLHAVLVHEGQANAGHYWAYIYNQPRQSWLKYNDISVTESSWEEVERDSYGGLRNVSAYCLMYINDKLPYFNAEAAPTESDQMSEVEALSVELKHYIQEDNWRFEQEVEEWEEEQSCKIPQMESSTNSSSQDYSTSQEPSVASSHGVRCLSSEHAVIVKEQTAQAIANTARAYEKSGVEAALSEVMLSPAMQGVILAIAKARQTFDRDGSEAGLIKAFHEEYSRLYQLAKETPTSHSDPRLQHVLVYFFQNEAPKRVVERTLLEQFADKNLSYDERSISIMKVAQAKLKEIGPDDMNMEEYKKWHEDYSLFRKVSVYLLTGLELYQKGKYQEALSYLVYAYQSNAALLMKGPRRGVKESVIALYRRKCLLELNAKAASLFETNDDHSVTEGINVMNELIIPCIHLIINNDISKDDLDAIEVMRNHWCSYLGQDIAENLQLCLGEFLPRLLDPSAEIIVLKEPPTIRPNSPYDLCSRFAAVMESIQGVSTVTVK
SMILES,pIC50,IC50
COc1ccc(S(=O)(=O)Nc2ccc(Nc3ccc(-n4cccn4)nn3)cc2)cc1,4.39,
COc1ccc2c(c1)CCc1c-2n[nH]c1C(=O)Nc1cc(C)on1,4.91,
Cc1ccc(/C=C/C(=O)Nc2ccc3c(c2)OCCO3)cc1,5.42,
COc1ccc(CC(=O)NCc2ccc3[nH]c(C)cc3c2)cc1,,> 50 µM (inactive)
O=C(NC1CCN(Cc2ccccc2)CC1)c1[nH]nc2c1COc1ccccc1-2,5.16,
Cc1ccc2c(c1)[C@]1(C(=O)N2)[C@@H]2C(=O)N(c3cccc(C(F)(F)F)c3)C(=O)[C@@H]2C2CCCN21 (stereo partly specified),,> 50 µM (inactive)
Cc1cccc(C(=O)Nc2cccc(SC(C(=O)Nc3ccc(O)c(C(=O)O)c3)c3ccccc3)c2)c1 (stereo unspecified),5.43,
CCOC(=O)c1sc2nc(CC(=O)OC)nc(NCc3ccco3)c2c1C,,> 50 µM (inactive)
CN1C(=O)[C@@]23C[C@]4([C@@]56C[C@]78SS[C@](CO)(C(=O)N7[C@@H]5Nc5ccccc56)N(C)C8=O)c5ccccc5N[C@@H]4N2C(=O)[C@]1(CO)SS3,,> 50 µM (inactive)
CC(C)CC1NC(=O)C2CCCN2C1=O (stereo unspecified),4.43,
COc1cc(OC)c2c(c1)C(=O)C1=C(COC(C)(O)C1)C2=O (stereo unspecified),,> 50 µM (inactive)
CCCCCCCc1cc(O)cc(O)c1,5.36,
CC1=C(c2ccc(C)c(C)c2)S(=O)(=O)NC1=NCC(=O)NCCCc1ccccc1,4.59,
O=C(CCn1c(=O)c2sccc2n(CC(=O)OCc2ccccc2)c1=O)NCc1ccc2c(c1)OCO2,4.74,
O=C(CN(Cc1ccc(Cl)cc1)S(=O)(=O)c1ccc(Cl)cc1)N1CCOCC1,,> 50 µM (inactive)
O=C(CNC(=O)c1cc2ccccc2[nH]1)Nc1ccc2c(c1)OCCO2,4.34,
CCN1C(SCc2ccccc2F)=NS(=O)(=O)c2ccccc21,4.90,
CO[C@H]1CC[C@H](O)c2c1oc1c3c4c(c(O)c1c2=O)-c1c(cc2c(Cl)c(C)n(N)c(=O)c2c1O)C[C@@H]4OCO3,4.69,
COc1cccc(NC(=O)C2Cc3ccccc3N2C(=O)c2ccccc2)c1 (stereo unspecified),4.65,
NS(=O)(=O)c1cc(C(=O)OCC(=O)NC2CCCc3ccccc32)ccc1Cl (stereo unspecified),4.51,
O=C(Nc1cccc(S(=O)(=O)N2CCCC2)c1)c1ccc2c(=O)n3c(nc2c1)CCCCC3,4.67,

# From PubChem BioAssay AID1645866 (Buhrlage Lab, Dana-Farber Cancer Institute and Novartis …, 2021)
